The star is where a group is joined. Fmoc = O=C(OCC1c2ccccc2-c2ccccc21)*
Legend:
Format in all cases: physicochemical
[1] = Time sweep rheology of peptide hydrogels and hybrid hydrogels; details: 5 Hz; for G′/G″ / G′ (storage modulus) / G″ (loss modulus): hydrogels 5 g·L−1, time sweep 0.5% strain; for G′ (storage modulus): after 4 hours of gelation; for G′ (storage modulus) / G″ (loss modulus): room temperature
Experimental: Rheological measurements: Rheological analysis was performed using an AR-G2 controlled rheometer (TA Instruments, New Castle, DA, USA). Oscillatory strain (0.01-100%) and frequency sweep (0.01-100 Hz) were conducted on 100 μL samples of pre gelated disks, 8 mm in diameter. The measurement was conducted with an 8 mm geometry (resulting in a gap size of 1 mm) at room temperature, in order to define the viscoelastic region in which the oscillatory test was performed.
Time-sweep oscillatory analyses used a constant a frequency of 5 Hz and a strain of 0.5%. Freshly prepared samples (220 μL) were placed under a 20 mm parallel plate geometry (resulting in a gap of 0.6 mm) at room temperature to determine the G′ (storage modulus) and G″, (loss modulus) for each sample.
The in situ kinetics of the hydrogels formation and their mechanical properties were characterized by time sweep measurements over 4 hours at a fixed strain of 0.5% and frequency of 5 Hz, and the results are presented in FIGS. 3A-B.

[2] = TEM imaging of hydrogel fibrils; details: hydrogels 5 g·L−1
Experimental: Transmission electron microscopy (TEM): Samples (10 μl) were placed on copper grids (400 mesh) covered with a carbon-stabilized Formvar film (EMS, BNFFA1000-Cu). After 2 minutes, excess gel was removed, and the grids were negatively stained with 10 μl of UranylLess staining solution for 1 minute. Finally, excess fluid was removed, and the samples were viewed in a JEM 1400plus electron microscope operating at 80 kV.

[3] = Absorbance kinetics of the hydrogel formation (turbidity at 400 nm)
Experimental: Absorbance kinetics of the hydrogel formation: Samples of 100 μL of Fmoc-FF, PegA, PepB formulations and the co-assembled hydrogels (bioink compositions) were placed into a 96-well plate. Absorbance at 400 nm was measured every 30 seconds using a TECAN Infinite M2000PRO plate reader for a total of 4 hours.
To further evaluate the impact of co-assembly on gelation kinetics, the absorbance spectra of the hybrid hydrogels compared to the Fmoc-FF hydrogel at 400 nm was monitored over time and the results are presented in FIGS. 8A-B.

[4] = Hydrogel formation, inverted tubes after overnight gelation; details: single peptide, 5 g·L−1 in water from DMSO stock
Experimental: Preparation of hydrogels: Stock solutions of each of Fmoc-FF, PepA and PepB were prepared by dissolving the respective peptides in dimethyl sulfoxide (DMSO) at a concentration of 100 gram/liter (g·L^−1). The hydrogels were prepared by diluting the stock solution in double distilled water to a final concentration of 5 grams/Liter (5 g·L^−1), to thereby obtain a hydrogel formulation. The mixture was vortexed for 2 seconds and then incubated at room temperature until gelation occurred, thereby providing a hydrogel bioink composition.
Hydrogels made of a single peptide and hybrid hydrogels made of two peptides were prepared using the solvent switch method by dissolving the monomers in DMSO and then diluting the stock solutions into water to a final concentration of 5 g-L.

G′/G″ [1] | G′ (storage modulus) [1] [Pa] | G″ (loss modulus) [1] [Pa] | time to gelation / plateau of hydrogel formation ([1]; time sweep over 4 hours, 0.5% strain, 5 g·L−1) [min] | fibril diameter [2] [nm] | time to form a clear hydrogel (absorbance drop) ([3]; absorbance at 400 nm monitored over time) | OD value reached ([3]; absorbance at 400 nm, minimum after clearing) [OD] | hydrogel formation [4] | Substance
37 | 9552 | 251 | ≤ 4 | 16 | within a few minutes | 0.1 | rigid and stable | Fmoc-Phe-Phe-OH [Fmoc-FF, reference compound]
0 | 1 | 1 |  |  |  |  | did not form a hydrogel at all | Fmoc-Phe-Phe-EG6-COOH [PepB]
3 | 157 | 42 |  | 9 |  |  | formed a weak hydrogel | Fmoc-Phe-Phe-EG2—COOH [PepA]

— US20240425710A1, “PEPTIDE-BASED BIOINK COMPOSITIONS” (Ramot at Tel-Aviv University Ltd., priority 2022, published 2024)
